Reference: patent publication US20200223837A1, “BENZOFURAN AMIDES AND HETEROAROMATIC ANALOGUES THEREOF FOR USE IN THERAPY” (European Molecular Biology Laboratory, priority 2017, published 2020)

What was measured:
[1] = system: patient derived CLL samples; experiment: Growth inhibition of cells derived from patients with CLL; assay type: cell-based; settings: 27 patient derived CLL isolates; for EC50: Homo sapiens, read-out: median EC50
Procedure: HeLa, A549 and HCT116 cells were grown in high-glucose Dulbecco's Modified Eagle's Medium (DMEM, Sigma)+10% FBS+1% penicillin and streptomycin+1% L-glutamine, at 37° C. with 5% CO2 and 95% humidity. Cytotoxic screening of the ProQinase panel of 100 cell-lines was performed by ProQinase (Freiburg, Germany). Patient derived CLL isolates were prepared and screened as described by Dietrich et al. (S. Dietrich et al., J Clin Invest, 2018, 128(1), 427-445). Cell viability was determined after 48 hours using the ATP-based CellTiter Glo assay (Promega). Luminescence was measured with a Tecan Infinite F200 Microplate Reader (Tecan Group AG) and with an integration time of 0.2 seconds per well.
The response of 97 tumour samples derived from patients with CLL was investigated. All samples tumor cells were obtained from whole blood, subjected to Ficoll-Isopaque density centrifugation. CD19+B and CD3+ T cells were isolated by positive magnetic cell separation (Miltenyi Biotec). Sorted cells were checked for purity by fluorescence-activated cell sorting (FACS) with CD19/CD20 for healthy control samples and CD19/CD20/CD5 for CLL samples (BD Biosciences). Following sorting, all samples with a CD19/CD20/CD5 purity <98% were subjected to additional sorting, and the average final purity of all sorted samples was >99%. CLL samples with >[…] were not subject to purification.
Cells are incubated for three days with an eight-point three-fold titration series of the test compound from an initial concentration of 30 μM (2000 cells per well in a volume of 50 μl). Cellular viability is estimated by the addition of 25 μL of ATPlite (Perkin Elmer) with the resulting luminescence measured using an EnVision Xcite plate reader (Perkin Elmer).
In addition, the growth inhibitory response of a selection of 27 patient derived CLL isolates (S. Dietrich et al., J Clin Invest, 2018, 128(1), 427-445) against the compounds of examples 64 and 85 was evaluated using the procedure as described above.

[2] = Bioavalability (PO/IV pharmacokinetic study); assay type: in vivo, Male Balb/c mice; settings: mice, PO 30 mg/kg vs IV 10 mg/kg
Procedure: Male Balb/c mice (11-12 weeks old, body weight 23.7 to 30.6 g and average body weight across all groups 26.5 g, SD=1.6 g) are used in this study. The animals are randomly assigned to the treatment groups before the pharmacokinetic study; all animals are fasted for 3 h before dosing. Six time points (IV: 5, 15, 30, 60, 120 and 240 min, and PO: 15, 30, 60, 120, 240, and 360 min) are used in this pharmacokinetic study. Each of the PO and IV time point treatment groups includes 4 animals; there is also control group of 2 animals. Dosing is done according to the treatment schedules outlined in the Table 2. Mice are injected IV with tribrometanol at the dose of 150 mg/kg prior to taking blood. Blood samples are withdrawn from retroorbital sinus and are collected in microcontainers containing K2EDTA. All samples are immediately prepared, flash-frozen and stored at −70° C. until subsequent bioanalysis.
Plasma samples (50 μl) are mixed with 200 μl of IS solution (100 ng/ml in acetonitrile-methanol mixture 1:1, v/v). After mixing by pipetting and centrifuging for 4 min at 6,000 rpm, 2 μl of each supernatant is injected into a LC-MS/MS system.
The concentrations of test compound are determined using a high performance liquid chromatography/tandem mass spectrometry (HPLC-MS/MS) method. […]

EGR1 promoter = experiment: EGR1 reporter assay (luciferase) in genomically engineered HeLa cell line; assay type: cell-based; settings: Homo sapiens; EGR1 reporter HeLa cells, luciferase activity after 24 hours with compound
Procedure, shortened: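 HeLa cells with eGFP-P2A-luciferase knocked in by CRISPR behind the endogenous EGR1 promoter, seeded 2000/well in DMEM with 10% FCS for 24 h. Cells treated 24 h with an 11-point 1:3 series from 100 μM initial DMSO dilution. Readout: luciferase bioluminescence.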

Row | SMILES | growth inhibitory response [1] | EC50 [1] [µM] | oral bioavalability [2] [%] | EC50 (EGR1 promoter) [µM]
1 | O=C(Cc1coc2c(Cl)c(Cl)ccc12)Nc1ncc(C(F)(F)F)s1 [Example 85, 2-(6,7-Dichlorobenzofuran-3-yl)-N-[5-(trifluoromethyl)thiazol-2-yl]acetamide] | active against all isolates | 1.67 | 40 | 0.01 to 10
2 | Cc1cnc(NC(=O)Cc2coc3cc4c(cc23)CCC4)s1 [Example 64, 2-(6,7-Dihydro-5H-cyclopenta[f]benzofuran-3-yl)-N-(5-methylthiazol-2-yl)acetamide] | active against all isolates | 6 | 9.9 | 0.01 to 10
